Measurements: patent publication US11000033B2, “Ketone or oxime compound, and herbicide” (NISSAN CHEMICAL CORPORATION, priority 2014, dated 2021)

How the values were obtained:
Type in all cases: in vivo
transplanted rice plant = test: Test Example 1: effect on crop, application before weed generation in submerged conditions (symbol a); details: application herbicide amount 320 g/ha
Method in brief: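 Alluvial soil pots flooded to 4 cm water, sown with Echinochloa oryzacola, Scirpus juncoides and Monochoria vaginalis, then transplanted with 2.5 leaf stage rice seedlings; pre-emergence application. Greenhouse 25° C. to 30° C.; scored 0–5 by herbicidal ratio 3 weeks after application.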

Galium spurium = test: Test Example 5: herbicidal effect by foliage application, plastic box (symbol Q); details: 320 g/ha, 3 weeks after application
Method in brief: (§1)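 After sowing into sterilized diluvial soil and growing two weeks under glass at 25° C. to 30° C., seedlings receive a uniform foliar spray of diluted emulsion. Damage is judged visually three weeks on.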

[1] = test system: directly sowed rice plant; test: Test Example 3: effect on crop by foliage application, Wagner pot (symbol b); details: application herbicide amount 320 g/ha
Method in brief: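 Greenhouse culture at 25–30 °C of seeded rice, Cyperus difformis, Leptochloa chinensis and Echinochloa crus-galli var. crus-galli, in alluvial soil held under 0.1–0.5 cm of water in a Wagner pot.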

[2] = test system: Echinochloa crus-galli var. crus-galli; test: Test Example 3: herbicidal effect by foliage application, Wagner pot (symbol H); details: application herbicide amount 320 g/ha
Method in brief: (§2)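 Weeds and rice were sown in alluvial soil under 0.1–0.5 cm of standing water and grown for 14 days in a 25–30 °C greenhouse. An emulsion of the compound, diluted in water to a set dose, was sprayed evenly onto the foliage. Effect was scored against fixed criteria 3 weeks after treatment.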

Lolium multiflorum Lam. = test: Test Example 5: herbicidal effect by foliage application, plastic box (symbol K); details: 320 g/ha, 3 weeks after application
Method in brief: as §1

[3] = test system: Echinochloa crus-galli var. crus-galli; test: Test Example 5: herbicidal effect by foliage application, plastic box (symbol H); details: 320 g/ha, 3 weeks after application
Method in brief: as §1

Veronica persica = test: Test Example 5: herbicidal effect by foliage application, plastic box (symbol R); details: 320 g/ha, 3 weeks after application
Method in brief: as §1

soybean = test: Test Example 5: effect on crop by foliage application, plastic box (symbol d); details: 320 g/ha, 3 weeks after application
Method in brief: (§3)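 Seeds were sown in spots in sterilized diluvial soil held in a plastic box 21 cm × 13 cm × 7 cm deep, covered with about 1.5 cm of soil, and grown in a greenhouse at 25° C. to 30° C.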

Cyperus difformis = test: Test Example 3: herbicidal effect by foliage application, Wagner pot (symbol E); details: application herbicide amount 320 g/ha
Method in brief: as §2

corn = test: Test Example 5: effect on crop by foliage application, plastic box (symbol c); details: 320 g/ha, 3 weeks after application
Method in brief: as §3

rice plant = test: Test Example 5: effect on crop by foliage application, plastic box (symbol b); details: 320 g/ha, 3 weeks after application
Method in brief: as §3

Chenopodium album = test: Test Example 5: herbicidal effect by foliage application, plastic box (symbol O); details: 320 g/ha, 3 weeks after application
Method in brief: as §1

beet = test: Test Example 5: effect on crop by foliage application, plastic box (symbol f); details: 320 g/ha, 3 weeks after application
Method in brief: as §3

Digitaria ciliaris = test: Test Example 5: herbicidal effect by foliage application, plastic box (symbol F); details: 320 g/ha, 3 weeks after application
Method in brief: as §1

Apera spica-venti = test: Test Example 5: herbicidal effect by foliage application, plastic box (symbol L); details: 320 g/ha, 3 weeks after application
Method in brief: as §1

Scirpus juncoides = test: Test Example 1: herbicidal activity, application before weed generation in submerged conditions (symbol B); details: application herbicide amount 320 g/ha
Method in brief: (§4)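 Flooded alluvial soil (4 cm water) was mixed-sown with the three weed species, and 2.5-leaf rice seedlings were transplanted. On sowing day, a water-diluted emulsion at a predetermined rate was applied to the water surface. After 3 weeks in a 25–30 °C greenhouse, effect was scored 0–5.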

Abutilon theophrasti = test: Test Example 5: herbicidal effect by foliage application, plastic box (symbol M); details: 320 g/ha, 3 weeks after application
Method in brief: as §1

Amaranthus retroflexus = test: Test Example 5: herbicidal effect by foliage application, plastic box (symbol N); details: 320 g/ha, 3 weeks after application
Method in brief: as §1

Alopecurus myosuroides = test: Test Example 5: herbicidal effect by foliage application, plastic box (symbol J); details: 320 g/ha, 3 weeks after application
Method in brief: as §1

Avena fatua = test: Test Example 5: herbicidal effect by foliage application, plastic box (symbol I); details: 320 g/ha, 3 weeks after application
Method in brief: as §1

Setaria viridis = test: Test Example 5: herbicidal effect by foliage application, plastic box (symbol G); details: 320 g/ha, 3 weeks after application
Method in brief: as §1

Stellaria media = test: Test Example 5: herbicidal effect by foliage application, plastic box (symbol P); details: 320 g/ha, 3 weeks after application
Method in brief: as §1

Leptochloa chinensis = test: Test Example 3: herbicidal effect by foliage application, Wagner pot (symbol D); details: application herbicide amount 320 g/ha
Method in brief: as §2

rapeseed = test: Test Example 5: effect on crop by foliage application, plastic box (symbol g); details: 320 g/ha, 3 weeks after application
Method in brief: as §3

[4] = test system: Echinochloa oryzacola Vasing.; test: Test Example 1: herbicidal activity, application before weed generation in submerged conditions (symbol A); details: application herbicide amount 320 g/ha
Method in brief: as §4

wheat = test: Test Example 5: effect on crop by foliage application, plastic box (symbol e); details: 320 g/ha, 3 weeks after application
Method in brief: as §3

Monochoria vaginalis = test: Test Example 1: herbicidal activity, application before weed generation in submerged conditions (symbol C); details: application herbicide amount 320 g/ha
Description: Herbicidal Activity Test by Application Before Weed Generation in Submerged Conditions
After alluvial soil was placed into 1/10000 are of Wagner pot, water was poured and mixed to form a submerged condition having a water depth of 4 cm. Seeds of Echinochloa oryzacola Vasing., Scirpus juncoides, and Monochoria vaginalis were sowed in a mixed manner in the above pot and thereafter 2.5 leaf stage rice plant seedlings were transplanted thereto. On the day of sowing seeds, the emulsion agent of the compound of the present invention prepared in accordance with Formulation Example 2 was diluted with water so as to be a predetermined herbicide amount and the diluted emulsion agent was applied to the surface of the water. The pot was placed in a greenhouse of 25° C. to 30° C. to grow plant. 3 weeks later from the herbicide application, the effect to each plant was investigated in accordance with the following criteria.
5 Herbicidal ratio of 90% or more (almost completely withered)
4 Herbicidal ratio of 70% or higher and lower than 90%
3 Herbicidal ratio of 40% or higher and lower than 70%
2 Herbicidal ratio of 20% or higher and lower than 40%
1 Herbicidal ratio of 5% or higher and lower than 20%
0 Herbicidal ratio of 5% or lower (almost no effect)

COCCOc1cc(C)c(C2=C(O)CC(CC(C)=NOC)C2=O)c(C)c1 (stereo not drawn) [6-098]
Effect grade on crop, a: transplanted rice plant (transplanted rice plant): 1 (Herbicidal ratio of 5% or higher and lower than 20%)
Q: Galium spurium, herbicidal effect (criteria of Test Example 1) (Galium spurium): 0 (Herbicidal ratio of 5% or lower (almost no effect))
effect on crop b (directly sowed rice plant), grade 0-5 [1]: 5 (Herbicidal ratio of 90% or more (almost completely withered))
herbicidal effect on H (Echinochloa crus-galli var. crus-galli), grade 0-5 [2]: 3 (Herbicidal ratio of 40% or higher and lower than 70%)
K: Lolium multiflorum Lam., herbicidal effect (criteria of Test Example 1) (Lolium multiflorum Lam.): 5 (Herbicidal ratio of 90% or more (almost completely withered))
H: Echinochloa crus-galli var. crus-galli, herbicidal effect (criteria of Test Example 1) [3]: 2 (Herbicidal ratio of 20% or higher and lower than 40%)
R: Veronica persica, herbicidal effect (criteria of Test Example 1) (Veronica persica): 0 (Herbicidal ratio of 5% or lower (almost no effect))
d: soybean, effect on crop (criteria of Test Example 1) (soybean): 0 (Herbicidal ratio of 5% or lower (almost no effect))
herbicidal effect on E, grade 0-5 (Cyperus difformis): 4 (Herbicidal ratio of 70% or higher and lower than 90%)
c: corn, effect on crop (criteria of Test Example 1) (corn): 1 (Herbicidal ratio of 5% or higher and lower than 20%)
b: directly sowed rice plant, effect on crop (criteria of Test Example 1) (rice plant): 2 (Herbicidal ratio of 20% or higher and lower than 40%)
O: Chenopodium album, herbicidal effect (criteria of Test Example 1) (Chenopodium album): 0 (Herbicidal ratio of 5% or lower (almost no effect))
f: beet, effect on crop (criteria of Test Example 1) (beet): 0 (Herbicidal ratio of 5% or lower (almost no effect))
F: Digitaria ciliaris, herbicidal effect (criteria of Test Example 1) (Digitaria ciliaris): 3 (Herbicidal ratio of 40% or higher and lower than 70%)
L: Apera spica-venti, herbicidal effect (criteria of Test Example 1) (Apera spica-venti): 4 (Herbicidal ratio of 70% or higher and lower than 90%)
Herbicidal effect grade, B: Scirpus juncoides (Scirpus juncoides): 1 (Herbicidal ratio of 5% or higher and lower than 20%)
M: Abutilon theophrasti, herbicidal effect (criteria of Test Example 1) (Abutilon theophrasti): 0 (Herbicidal ratio of 5% or lower (almost no effect))
N: Amaranthus retroflexus, herbicidal effect (criteria of Test Example 1) (Amaranthus retroflexus): 0 (Herbicidal ratio of 5% or lower (almost no effect))
J: Alopecurus myosuroides, herbicidal effect (criteria of Test Example 1) (Alopecurus myosuroides): 3 (Herbicidal ratio of 40% or higher and lower than 70%)
I: Avena fatua, herbicidal effect (criteria of Test Example 1) (Avena fatua): 1 (Herbicidal ratio of 5% or higher and lower than 20%)
G: Setaria viridis, herbicidal effect (criteria of Test Example 1) (Setaria viridis): 3 (Herbicidal ratio of 40% or higher and lower than 70%)
P: Stellaria media, herbicidal effect (criteria of Test Example 1) (Stellaria media): 0 (Herbicidal ratio of 5% or lower (almost no effect))
herbicidal effect on D (Leptochloa chinensis), grade 0-5 (Leptochloa chinensis): 5 (Herbicidal ratio of 90% or more (almost completely withered))
g: rapeseed, effect on crop (criteria of Test Example 1) (rapeseed): 0 (Herbicidal ratio of 5% or lower (almost no effect))
Herbicidal effect grade, A: Echinochloa oryzacola Vasing. [4]: 0 (Herbicidal ratio of 5% or lower (almost no effect))
e: wheat, effect on crop (criteria of Test Example 1) (wheat): 2 (Herbicidal ratio of 20% or higher and lower than 40%)
Herbicidal effect grade, C: Monochoria vaginalis (Monochoria vaginalis): 0 (Herbicidal ratio of 5% or lower (almost no effect))

CC(CC1CC(OC(=O)N(C)C)=C(c2c(C)cc(-c3ccc(Cl)cc3)cc2C)C1=O)=NOCC(F)(F)F (mixture of isomers) [9-026]
a (transplanted rice plant) effect on crop grade (transplanted rice plant): 0 (Herbicidal ratio of 5% or lower (almost no effect))
Q: Galium spurium, herbicidal effect grade (Galium spurium): 0 (Herbicidal ratio of 5% or lower (almost no effect))
b (directly sowed rice plant) effect on crop grade ([1]; Table 24): 0 (Herbicidal ratio of 5% or lower (almost no effect))
H (Echinochloa crus-galli var. crus-galli) herbicidal effect grade ([2]; Table 24): 0 (Herbicidal ratio of 5% or lower (almost no effect))
K: Lolium multiflorum Lam., herbicidal effect grade (Lolium multiflorum Lam.): 0 (Herbicidal ratio of 5% or lower (almost no effect))
H: Echinochloa crus-galli var. crus-galli, herbicidal effect grade [3]: 0 (Herbicidal ratio of 5% or lower (almost no effect))
R: Veronica persica, herbicidal effect grade (Veronica persica): 0 (Herbicidal ratio of 5% or lower (almost no effect))
d: soybean, effect on crop grade (soybean): 0 (Herbicidal ratio of 5% or lower (almost no effect))
E herbicidal effect grade (Cyperus difformis; Table 24): 0 (Herbicidal ratio of 5% or lower (almost no effect))
c: corn, effect on crop grade (corn): 5 (Herbicidal ratio of 90% or more (almost completely withered))
b: directly sowed rice plant, effect on crop grade (rice plant): 0 (Herbicidal ratio of 5% or lower (almost no effect))
O: Chenopodium album, herbicidal effect grade (Chenopodium album): 0 (Herbicidal ratio of 5% or lower (almost no effect))
f: beet, effect on crop grade (beet): 0 (Herbicidal ratio of 5% or lower (almost no effect))
F: Digitaria ciliaris, herbicidal effect grade (Digitaria ciliaris): 5 (Herbicidal ratio of 90% or more (almost completely withered))
L: Apera spica-venti, herbicidal effect grade (Apera spica-venti): 0 (Herbicidal ratio of 5% or lower (almost no effect))
B (Scirpus juncoides) herbicidal effect grade (Scirpus juncoides): 0 (Herbicidal ratio of 5% or lower (almost no effect))
M: Abutilon theophrasti, herbicidal effect grade (Abutilon theophrasti): 0 (Herbicidal ratio of 5% or lower (almost no effect))
N: Amaranthus retroflexus, herbicidal effect grade (Amaranthus retroflexus): 0 (Herbicidal ratio of 5% or lower (almost no effect))
J: Alopecurus myosuroides, herbicidal effect grade (Alopecurus myosuroides): 0 (Herbicidal ratio of 5% or lower (almost no effect))
I: Avena fatua, herbicidal effect grade (Avena fatua): 3 (Herbicidal ratio of 40% or higher and lower than 70%)
G: Setaria viridis, herbicidal effect grade (Setaria viridis): 4 (Herbicidal ratio of 70% or higher and lower than 90%)
P: Stellaria media, herbicidal effect grade (Stellaria media): 0 (Herbicidal ratio of 5% or lower (almost no effect))
D (Leptochloa chinensis) herbicidal effect grade (Leptochloa chinensis; Table 24): 3 (Herbicidal ratio of 40% or higher and lower than 70%)
g: rapeseed, effect on crop grade (rapeseed): 0 (Herbicidal ratio of 5% or lower (almost no effect))
A (Echinochloa oryzacola Vasing.) herbicidal effect grade [4]: 4 (Herbicidal ratio of 70% or higher and lower than 90%)
e: wheat, effect on crop grade (wheat): 0 (Herbicidal ratio of 5% or lower (almost no effect))
C (Monochoria vaginalis) herbicidal effect grade (Monochoria vaginalis): 0 (Herbicidal ratio of 5% or lower (almost no effect))
